According to US12630532B2, “Indole-substituted quinolines and their combination with Plk1 inhibitors for the treatment of cancer” (UNIVERSITY OF KENTUCKY RESEARCH FOUNDATION, priority 2021, dated 2026):

System: LS174T colon cancer cell xenografts
Assay: In vivo antineoplastic activity and gross toxicity in LS174T xenografts
Description: Mouse studies were carried out with approval from the Institutional Animal Care and Use Committee of the University of Kentucky (2020-3531). All methods were performed in accordance with the relevant guidelines and regulations according to protocols. […] After tumors were established, mice were randomized according to tumor volume and divided into groups for treatments (five mice in each group, two tumors on each mouse).
The in vivo evaluation of ISQ-1 and BI2536 followed the approved protocol. After tumors were established, ISQ-1 was formulated in a mixture of Tween-80 (5%), DMSO (10%), PEG400 (25%) and PBS (60%) and was intraperitoneally administered to the ISQ-1 group at a daily dose of 20 mg/kg mouse body weight. The first day of treatment was set as day 0. At days 0, 4, and 7, BI2536 dissolved in 0.1 N HCl and then diluted 5-fold using 0.9% NaCl was given via gavage to the B12536 group. Mice in combination therapy group were treated with both ISQ-1 and BI2536 following aforementioned dosing schedules. At day 11 treatment was ceased and mice were sacrificed. Tumors and mouse weights were measured, and tumor volumes were calculated as Length×width^2/2.
Major biological assays were performed at least twice. Data were shown as mean SEM. For the mice study, five mice with two tumors on the lower flanks of each mouse were used in each treatment group. Sizes of the two tumors from each mouse were averaged, standardized by the tumor size on day 0, and log-transformed. ANOVA with Tukey's HSD test was used to compare the tumor size at the end of the study (day 11) between the combination therapy of ISQ-1 and B12536 and each single compound as well as the control. The equal variance assumption of ANOVA was assessed by Bartlett's test. All statistical studies were overseen in collaboration with a statistician in the University of Kentucky's Markey Cancer Center.

CN(C)c1ccc2cc(-c3cn(C)c4ccccc34)c(N)nc2c1 [ISQ-1, N^7,N^7-Dimethyl-3-(1-methyl-1H-indol-3-yl)quinoline-2,7-diamine]
tumor growth of LS174T xenografts (nude mice, ISQ-1 20 mg/kg daily i.p., BI2536 30 mg/kg twice a week by gavage, day 11): inhibited tumor growth but did not induce tumor regression
gross toxicities on the basis of mouse weight measurements (same dosing as efficacy study): No gross toxicities
